The source made the active and inactive calls.
How the values were obtained:
[1] = Trypanosoma cruzi growth suppression in host cells – NIH3T3 host cells, beta-gal luminescence, confirmation (AID 2044); type: functional, cell-based;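 also: intracellular parasites grown in NIH/3T3 mouse fibroblasts as host cells; luminescent beta-galactosidase reporter signal from transgenic T. cruzi replicating inside host cells; inhibitors lower the luminescence signal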
[2] = NIH3T3 cell viability loss – ATP luminescence, mouse fibroblasts, counter-screen, dose response (AID 2010); type: functional, cell-based;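 also: cells exposed to compound for about 90 hours before reading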
[3] = target: T1, Short transient receptor potential channel 4 (Mus musculus, UniProt Q9QUQ5); test: calcium entry via TRPC4 opening agents – cell-based, HEK293 TRPC4/mu-opioid, Fluo-4 calcium, dose response (AID 434937); type: functional
T1 sequence (Q9QUQ5 whole entry): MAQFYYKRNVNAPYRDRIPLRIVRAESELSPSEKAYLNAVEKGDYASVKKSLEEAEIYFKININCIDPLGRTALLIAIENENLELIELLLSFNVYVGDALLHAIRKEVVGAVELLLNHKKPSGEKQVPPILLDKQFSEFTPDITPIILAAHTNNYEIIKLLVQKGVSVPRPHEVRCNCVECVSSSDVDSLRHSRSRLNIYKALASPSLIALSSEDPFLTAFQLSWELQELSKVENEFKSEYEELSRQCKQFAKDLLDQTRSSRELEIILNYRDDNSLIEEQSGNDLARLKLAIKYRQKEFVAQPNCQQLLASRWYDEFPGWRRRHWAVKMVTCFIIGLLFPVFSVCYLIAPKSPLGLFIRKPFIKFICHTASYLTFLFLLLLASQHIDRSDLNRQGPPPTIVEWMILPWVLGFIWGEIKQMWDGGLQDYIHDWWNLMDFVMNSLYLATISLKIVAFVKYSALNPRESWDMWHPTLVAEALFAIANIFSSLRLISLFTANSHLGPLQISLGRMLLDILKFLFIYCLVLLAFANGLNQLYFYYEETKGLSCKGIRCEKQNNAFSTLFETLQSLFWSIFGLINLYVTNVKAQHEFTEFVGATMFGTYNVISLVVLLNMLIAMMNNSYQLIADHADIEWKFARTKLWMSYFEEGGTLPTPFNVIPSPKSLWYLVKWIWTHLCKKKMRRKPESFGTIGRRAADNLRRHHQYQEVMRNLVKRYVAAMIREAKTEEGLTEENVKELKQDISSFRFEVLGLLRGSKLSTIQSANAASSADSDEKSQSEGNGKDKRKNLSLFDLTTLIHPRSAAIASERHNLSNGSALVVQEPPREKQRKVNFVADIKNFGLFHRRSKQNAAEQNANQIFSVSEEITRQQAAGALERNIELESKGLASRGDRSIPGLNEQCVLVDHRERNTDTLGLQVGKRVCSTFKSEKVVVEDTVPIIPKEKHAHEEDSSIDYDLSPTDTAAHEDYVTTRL

Beta-galactosidase = Beta-galactosidase (Escherichia coli, UniProt Q8VNN2); test: PubChem AID 485352; type: functional
Beta-galactosidase, sequence (Q8VNN2 whole entry): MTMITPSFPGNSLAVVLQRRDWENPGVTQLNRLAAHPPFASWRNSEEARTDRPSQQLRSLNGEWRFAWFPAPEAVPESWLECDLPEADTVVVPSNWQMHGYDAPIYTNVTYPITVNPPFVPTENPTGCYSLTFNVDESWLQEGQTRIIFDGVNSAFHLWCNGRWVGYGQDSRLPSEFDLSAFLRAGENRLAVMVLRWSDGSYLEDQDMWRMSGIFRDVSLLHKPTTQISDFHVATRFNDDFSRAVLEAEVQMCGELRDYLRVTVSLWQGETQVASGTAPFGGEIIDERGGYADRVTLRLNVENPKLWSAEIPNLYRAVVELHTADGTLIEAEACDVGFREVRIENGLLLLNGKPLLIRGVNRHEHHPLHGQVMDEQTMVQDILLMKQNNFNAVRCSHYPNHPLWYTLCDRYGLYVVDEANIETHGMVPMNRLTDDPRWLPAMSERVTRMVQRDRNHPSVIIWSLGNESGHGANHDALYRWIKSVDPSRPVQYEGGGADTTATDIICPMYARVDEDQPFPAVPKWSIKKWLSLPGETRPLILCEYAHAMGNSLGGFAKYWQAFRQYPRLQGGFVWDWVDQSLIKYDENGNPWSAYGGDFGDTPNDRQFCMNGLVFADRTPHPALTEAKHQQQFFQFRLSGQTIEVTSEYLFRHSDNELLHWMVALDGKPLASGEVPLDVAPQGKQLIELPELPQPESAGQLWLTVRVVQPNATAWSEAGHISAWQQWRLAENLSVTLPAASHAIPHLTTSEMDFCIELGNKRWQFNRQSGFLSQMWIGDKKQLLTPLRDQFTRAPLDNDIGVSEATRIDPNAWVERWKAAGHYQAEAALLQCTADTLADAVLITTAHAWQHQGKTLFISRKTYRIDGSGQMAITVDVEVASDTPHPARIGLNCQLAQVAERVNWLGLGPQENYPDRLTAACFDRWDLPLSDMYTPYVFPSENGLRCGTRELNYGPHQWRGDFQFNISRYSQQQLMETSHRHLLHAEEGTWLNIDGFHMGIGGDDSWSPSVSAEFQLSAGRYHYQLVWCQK

[4] = microbe, parasite or virus in culture; type: functional; settings: Mycobacterium tuberculosis
[5] = target: T2, Type-1 angiotensin II receptor (Homo sapiens, UniProt P30556); test: antagonism of angiotensin II type 1 receptor – cell-based, uHTS hits, selectivity assay for APJ receptor antagonist project, dose response (AID 463214); type: functional;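 also: antagonist potency against angiotensin II stimulated AT1 response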
T2 sequence (P30556 whole entry): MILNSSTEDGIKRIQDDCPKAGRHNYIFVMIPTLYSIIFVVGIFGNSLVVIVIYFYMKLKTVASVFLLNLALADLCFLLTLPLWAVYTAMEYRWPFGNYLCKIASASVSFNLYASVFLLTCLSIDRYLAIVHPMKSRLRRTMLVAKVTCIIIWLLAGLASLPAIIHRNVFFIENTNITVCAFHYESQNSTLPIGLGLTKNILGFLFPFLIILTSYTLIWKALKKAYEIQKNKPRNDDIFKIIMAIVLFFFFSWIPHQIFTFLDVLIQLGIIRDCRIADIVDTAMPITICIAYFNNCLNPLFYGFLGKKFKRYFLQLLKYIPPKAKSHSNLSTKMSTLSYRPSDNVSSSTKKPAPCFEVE

[6] = Luminescence Cell-Based Dose Retest to Confirm Inhibitors of Cancer Stem Cells. [Related pubchem assays (depositor defined):AID2717, AID2721]; type: functional; settings: Homo sapiens
[7] = target: T3, Polyadenylate-binding protein 1 (Homo sapiens, UniProt P11940); test: MLLE binding blockers, Cy5 peptide tracer – biochemical, fluorescence polarization, Cy5-PAM2 peptide, secondary, miRNA deadenylation inhibitor project, dose response (AID 602260); type: functional; settings: read-out: IC50_Mean
T3 sequence (P11940 whole entry, the tested form may be a part): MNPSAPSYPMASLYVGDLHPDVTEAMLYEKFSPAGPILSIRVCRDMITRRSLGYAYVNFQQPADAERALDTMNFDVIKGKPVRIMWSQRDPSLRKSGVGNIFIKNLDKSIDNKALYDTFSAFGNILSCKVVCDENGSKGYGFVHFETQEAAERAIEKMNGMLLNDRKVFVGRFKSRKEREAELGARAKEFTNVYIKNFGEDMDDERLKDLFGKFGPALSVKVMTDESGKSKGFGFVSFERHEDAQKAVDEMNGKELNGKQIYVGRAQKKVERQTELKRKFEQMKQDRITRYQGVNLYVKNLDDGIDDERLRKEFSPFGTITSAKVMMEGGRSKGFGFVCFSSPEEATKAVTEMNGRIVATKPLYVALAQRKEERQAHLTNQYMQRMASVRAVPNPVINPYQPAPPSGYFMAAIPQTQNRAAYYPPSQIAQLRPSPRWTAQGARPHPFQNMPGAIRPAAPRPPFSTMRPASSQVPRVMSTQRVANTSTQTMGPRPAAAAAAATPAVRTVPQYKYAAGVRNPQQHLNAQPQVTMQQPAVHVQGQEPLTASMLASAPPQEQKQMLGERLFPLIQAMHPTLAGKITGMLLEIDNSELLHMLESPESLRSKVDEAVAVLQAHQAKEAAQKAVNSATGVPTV

[8] = target: T3, Polyadenylate-binding protein 1; test: MLLE domain peptide-binding blockers, IC50 – biochemical, fluorescence polarization, FITC-PAM2 peptide, dose response (AID 602259); type: functional; settings: read-out: IC50_Mean
[9] = target: SWI/SNF-related matrix-associated actin-dependent regulator of chromatin subfamily A member 2 (Homo sapiens, UniProt P51531); test: Luminescence-based cell-based high throughput dose response assay to identify activators of the function of SWI/SNF related, matrix associated, actin dependent regulator of chromatin, subfamily a, member 2 (SMARCA2, BRM).; type: functional
SWI/SNF-related matrix-associated actin-dependent regulator of chromatin subfamily A member 2, sequence (P51531 whole entry): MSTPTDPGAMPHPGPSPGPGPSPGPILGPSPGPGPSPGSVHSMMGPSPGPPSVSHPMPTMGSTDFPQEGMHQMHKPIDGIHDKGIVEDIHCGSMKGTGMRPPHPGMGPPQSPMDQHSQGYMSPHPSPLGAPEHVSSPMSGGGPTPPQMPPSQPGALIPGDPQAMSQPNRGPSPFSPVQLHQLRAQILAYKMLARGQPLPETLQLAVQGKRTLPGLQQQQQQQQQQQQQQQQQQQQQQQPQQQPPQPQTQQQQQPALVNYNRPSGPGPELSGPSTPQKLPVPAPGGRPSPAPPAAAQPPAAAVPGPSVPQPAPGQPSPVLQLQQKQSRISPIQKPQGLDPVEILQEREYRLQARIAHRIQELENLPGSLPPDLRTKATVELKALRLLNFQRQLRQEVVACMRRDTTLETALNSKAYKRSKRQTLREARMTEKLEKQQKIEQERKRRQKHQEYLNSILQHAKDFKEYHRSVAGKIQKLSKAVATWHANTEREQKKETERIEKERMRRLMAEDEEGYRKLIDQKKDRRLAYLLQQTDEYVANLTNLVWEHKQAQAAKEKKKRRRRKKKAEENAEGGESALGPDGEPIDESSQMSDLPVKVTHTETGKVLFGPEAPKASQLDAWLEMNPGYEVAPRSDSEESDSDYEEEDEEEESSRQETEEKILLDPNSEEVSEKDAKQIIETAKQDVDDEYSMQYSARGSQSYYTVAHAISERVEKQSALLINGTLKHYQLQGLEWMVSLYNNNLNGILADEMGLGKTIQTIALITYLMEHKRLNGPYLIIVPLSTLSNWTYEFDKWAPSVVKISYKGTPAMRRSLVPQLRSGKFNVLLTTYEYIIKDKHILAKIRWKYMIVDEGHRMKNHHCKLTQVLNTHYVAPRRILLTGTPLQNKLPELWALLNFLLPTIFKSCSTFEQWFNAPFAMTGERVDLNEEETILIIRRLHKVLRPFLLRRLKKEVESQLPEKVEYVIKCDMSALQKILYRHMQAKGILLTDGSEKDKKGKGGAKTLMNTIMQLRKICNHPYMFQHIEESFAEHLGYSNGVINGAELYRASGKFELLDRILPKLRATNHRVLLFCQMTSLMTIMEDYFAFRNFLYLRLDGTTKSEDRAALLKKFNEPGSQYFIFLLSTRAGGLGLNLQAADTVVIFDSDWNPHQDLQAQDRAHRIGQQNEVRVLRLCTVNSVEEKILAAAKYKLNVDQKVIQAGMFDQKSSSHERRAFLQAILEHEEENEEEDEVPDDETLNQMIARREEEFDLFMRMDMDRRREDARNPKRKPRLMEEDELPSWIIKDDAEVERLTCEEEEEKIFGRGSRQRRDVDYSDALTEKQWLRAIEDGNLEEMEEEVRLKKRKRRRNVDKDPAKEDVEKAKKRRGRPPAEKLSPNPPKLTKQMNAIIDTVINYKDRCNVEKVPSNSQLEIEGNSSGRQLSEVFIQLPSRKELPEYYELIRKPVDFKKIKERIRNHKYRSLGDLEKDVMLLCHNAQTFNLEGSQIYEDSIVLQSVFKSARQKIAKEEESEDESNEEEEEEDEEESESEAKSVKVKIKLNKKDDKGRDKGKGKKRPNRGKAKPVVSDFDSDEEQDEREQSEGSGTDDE

[10] = Counterscreen for activators of the function of SWI/SNF related, matrix associated, actin dependent regulator of chromatin, subfamily a, member 2 (SMARCA2, BRM): Luminescence-based cell-based high throughput dose response assay to identify non-selective compounds using the VP16 reporter assay.; type: functional
[11] = target: Glyceraldehyde-3-phosphate dehydrogenase (Homo sapiens, UniProt P04406)
Glyceraldehyde-3-phosphate dehydrogenase, sequence (P04406 whole entry): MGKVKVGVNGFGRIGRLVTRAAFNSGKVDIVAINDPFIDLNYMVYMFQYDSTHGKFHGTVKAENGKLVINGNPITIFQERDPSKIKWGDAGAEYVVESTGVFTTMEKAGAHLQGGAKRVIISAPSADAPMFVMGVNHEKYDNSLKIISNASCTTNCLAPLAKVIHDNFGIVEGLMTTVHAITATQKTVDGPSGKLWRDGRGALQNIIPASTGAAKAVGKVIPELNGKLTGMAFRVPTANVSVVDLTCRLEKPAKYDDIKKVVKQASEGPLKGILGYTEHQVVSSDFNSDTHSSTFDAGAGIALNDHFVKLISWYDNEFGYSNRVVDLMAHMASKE

[12] = target: Alkaline phosphatase, placental type (Homo sapiens, UniProt P05187); test: human placental alkaline phosphatase inhibition – biochemical, luminescence, confirmation (AID 1512); type: functional
Alkaline phosphatase, placental type, sequence (P05187 whole entry): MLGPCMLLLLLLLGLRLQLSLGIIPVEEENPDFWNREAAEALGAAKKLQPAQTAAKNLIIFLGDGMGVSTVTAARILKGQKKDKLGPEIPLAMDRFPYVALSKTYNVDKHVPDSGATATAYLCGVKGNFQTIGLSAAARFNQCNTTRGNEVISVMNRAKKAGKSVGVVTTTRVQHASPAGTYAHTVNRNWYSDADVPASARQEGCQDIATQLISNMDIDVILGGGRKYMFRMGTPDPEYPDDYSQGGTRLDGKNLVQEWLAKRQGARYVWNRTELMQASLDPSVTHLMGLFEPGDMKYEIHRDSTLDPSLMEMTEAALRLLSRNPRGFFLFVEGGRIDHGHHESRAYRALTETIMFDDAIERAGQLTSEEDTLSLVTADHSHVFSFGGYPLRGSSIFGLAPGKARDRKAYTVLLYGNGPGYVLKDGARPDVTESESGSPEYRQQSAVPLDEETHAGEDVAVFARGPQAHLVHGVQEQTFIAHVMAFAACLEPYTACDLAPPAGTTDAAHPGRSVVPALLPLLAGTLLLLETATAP

[13] = target: T4, Alkaline phosphatase, tissue-nonspecific isozyme (Homo sapiens, UniProt P05186); test: potency against alkaline phosphatase TNAP – biochemical, luminescent, dose response, SAR follow-up (AID 1056)
T4 sequence (P05186 whole entry): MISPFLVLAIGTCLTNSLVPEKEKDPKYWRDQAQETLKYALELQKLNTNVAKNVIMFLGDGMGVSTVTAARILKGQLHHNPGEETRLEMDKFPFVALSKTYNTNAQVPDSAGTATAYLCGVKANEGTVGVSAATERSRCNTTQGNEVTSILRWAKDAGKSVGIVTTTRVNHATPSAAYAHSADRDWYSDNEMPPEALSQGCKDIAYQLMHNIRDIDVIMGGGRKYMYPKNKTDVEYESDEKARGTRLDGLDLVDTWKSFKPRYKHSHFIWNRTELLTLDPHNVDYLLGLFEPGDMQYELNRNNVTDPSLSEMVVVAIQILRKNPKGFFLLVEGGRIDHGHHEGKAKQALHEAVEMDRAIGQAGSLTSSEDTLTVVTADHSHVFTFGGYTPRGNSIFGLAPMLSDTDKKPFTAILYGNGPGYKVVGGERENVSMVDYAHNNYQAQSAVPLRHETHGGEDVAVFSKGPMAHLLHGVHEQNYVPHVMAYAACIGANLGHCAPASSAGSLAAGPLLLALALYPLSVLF

[14] = target: DNA dC->dU-editing enzyme APOBEC-3G (Homo sapiens, UniProt Q9HC16); test: Dose Response confirmation of small molecule APOBEC3G DNA Deaminase Inhibitors via a fluorescence-based single-stranded DNA deaminase assay. [Related pubchem assays (depositor defined):AID493012, AID493028]; type: functional
DNA dC->dU-editing enzyme APOBEC-3G, sequence (Q9HC16 whole entry): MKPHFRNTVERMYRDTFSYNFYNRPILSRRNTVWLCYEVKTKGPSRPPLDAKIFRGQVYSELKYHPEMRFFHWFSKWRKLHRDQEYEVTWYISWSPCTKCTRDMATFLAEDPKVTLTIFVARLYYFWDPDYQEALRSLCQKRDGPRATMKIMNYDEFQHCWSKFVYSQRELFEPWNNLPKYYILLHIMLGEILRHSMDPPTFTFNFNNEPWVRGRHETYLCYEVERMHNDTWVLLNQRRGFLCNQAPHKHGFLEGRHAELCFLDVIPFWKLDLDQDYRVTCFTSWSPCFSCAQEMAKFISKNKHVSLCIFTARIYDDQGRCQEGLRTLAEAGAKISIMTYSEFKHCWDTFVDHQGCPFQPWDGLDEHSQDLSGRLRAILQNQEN

Vero = test: cells; type: functional; settings: Chlorocebus sabaeus
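For AC50 in this document: cells exposed to compound for roughly 70 hours or longer before luminescence read.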

Question: For `CCN1CCN(c2ccc(S(=O)(=O)N3CCCCC3)cc2NC(=O)COc2ccccc2)CC1`, which EC50 [1] is on record?
Answer: 1.01 µM (active)

Question: What about the EC50 [2] of the same compound?
Answer: > 60 µM (not active)

Question: And the EC50 [3]?
Answer: 6.68 µM (active)

Question: What does the source list for `Cc1csc(N=C(S)Nc2cccc(Cl)c2)n1`?
Answer: EC50 (Beta-galactosidase): > 40 µM (inactive); CC50 [4]: 33.1 µM (active); IC50 [5]: > 40 µM (not active); AC50 [6]: 7.09 µM (active); IC50 [7]: > 66 µM (inactive); IC50 [8]: > 66 µM (inactive)

Question: For `O=C(CNc1cccc(Cl)c1)c1ccc(Br)cc1`, which EC50 (Beta-galactosidase) is on record?
Answer: > 40 µM (inactive)

Question: And the IC50 [5]?
Answer: 15 µM (active)

Question: What about the EC50 [9] of the same compound?
Answer: > 91.2 µM (inactive)

Question: What about the EC50 [10] of the same compound?
Answer: > 91.2 µM (inactive)

Question: What does the source list for `O=C(c1cc(-c2cc(F)c(Cl)cc2Cl)n[nH]1)N1CCCCCC1`?
Answer: IC50 [11]: > 100 µM (not active); IC50 [12]: > 100 µM (inactive); IC50 [13]: > 100 µM (inactive)

Question: What does the source list for `O=C(CSc1nnc(-c2ccccc2Cl)[nH]1)c1ccc(O)c(O)c1`?
Answer: IC50 [11]: > 100 µM (not active); IC50 [12]: 8.15 µM (active); IC50 [13]: 1.36 µM (active)

Question: For `Cc1ccc(C(=O)NNC(=S)NC(=O)COc2ccccc2)cc1`, which IC50 [14] is on record?
Answer: 36.3 µM (active)

Question: And the EC50 [3]?
Answer: 1.5 µM (active)

Question: And the CC50 (Vero)?
Answer: > 25 µM (active)

Question: With `Cc1cc(C)cc(NC(=S)N2CCN(c3ncc(C(F)(F)F)cc3Cl)CC2)c1` as the compound, how does the EC50 [3] read?
Answer: 2.66 µM (active)

Question: For `CC1(C)CC(=O)c2c(-c3cccc(Br)c3)n[nH]c2C1`, which IC50 [11] is on record?
Answer: > 100 µM (not active)

Question: What about the IC50 [12] of the same compound?
Answer: > 100 µM (inactive)

Question: What about the IC50 [13] of the same compound?
Answer: > 100 µM (inactive)

Source: ChEMBL document CHEMBL1201862, “PubChem BioAssay data set” (2004)
